Experiments:
RT and MB cells = assay: Clonogenic colony formation assay; type: cell-based; conditions: 1µM
Description: All cell lines were seeded at 200 cells per well in six-well plates and incubated overnight. After 24 h, the treatment medium was added and changed once a week. Cells were treated with 0.01, 0.05, 0.1, 0.2, 0.5, 1, 5, and 10 µM of PLK4i and 0.1% DMSO as control. After 14 days, the cells were washed twice with 1x PBS, fixed with formalin, and stained with Cresyl violet (ACROS Organics, Pittsburgh, PA, USA). Colonies were counted using the ImageJ software (www.imagej.nih.gov, accessed on April 21, 2017).

ABL1 F317L = ABL1 F317L (Homo sapiens, UniProt P00519, F317L); assay: SelectScreen kinase profiling, ZLYTE; type: biochemical
ABL1 M351T = ABL1 M351T (Homo sapiens, UniProt P00519, M351T); assay: SelectScreen kinase profiling, LanthaScreen binding
ADRBK2 (GRK3) = ADRBK2 (GRK3) (Homo sapiens, UniProt P35626); assay: SelectScreen kinase profiling, ZLYTE; type: biochemical
AURKB (Aurora B) = AURKB (Aurora B) (Homo sapiens, UniProt Q96GD4); assay: SelectScreen kinase profiling, ZLYTE; type: biochemical
BRAF V599E = BRAF V599E (Homo sapiens, UniProt P15056, V600E); assay: SelectScreen kinase profiling, ZLYTE; type: biochemical
CAMK2B (CaMKII beta) = CAMK2B (CaMKII beta) (Homo sapiens, UniProt Q13554); assay: SelectScreen kinase profiling, ZLYTE; type: biochemical
CSK = CSK (Homo sapiens, UniProt P41240); assay: SelectScreen kinase profiling, ZLYTE; type: biochemical
[1] = molecular target: CSNK1E (CK1 epsilon) R178C (Homo sapiens, UniProt P49674, R178C); assay: SelectScreen kinase profiling, ZLYTE; type: biochemical
DAPK2 = DAPK2 (Homo sapiens, UniProt Q9UIK4); assay: SelectScreen kinase profiling, LanthaScreen binding; conditions: DAPK2, 10 µM
DNA-PK = DNA-PK (Homo sapiens, UniProt P78527); assay: SelectScreen kinase profiling, ZLYTE; type: biochemical
EEF2K = EEF2K (Homo sapiens, UniProt O00418); assay: SelectScreen kinase profiling, ZLYTE; type: biochemical
CYP2D6 = CYP2D6 (Homo sapiens, UniProt P10635)
FER = FER (Homo sapiens, UniProt P16591); assay: SelectScreen kinase profiling, ZLYTE; type: biochemical
FYN = FYN (Homo sapiens, UniProt P06241); assay: SelectScreen kinase profiling, ZLYTE; type: biochemical
JAK2 JH1 JH2 = molecular target: T1, JAK2 JH1 JH2 (Homo sapiens, UniProt O60674); assay: SelectScreen kinase profiling, ZLYTE; type: biochemical; conditions: JAK2 JH1 JH2, 10 µM
T1 construct: JAK2 JH1 JH2

LRRK2 = LRRK2 (Homo sapiens, UniProt Q5S007); assay: SelectScreen kinase profiling, Adapta; type: biochemical; conditions: LRRK2, 10 µM
LRRK2 FL = LRRK2 FL (Homo sapiens, UniProt Q5S007); assay: SelectScreen kinase profiling, Adapta; type: biochemical
LYN A = LYN A (Homo sapiens, UniProt P07948); assay: SelectScreen kinase profiling, ZLYTE; type: biochemical
LYN B = LYN B (Homo sapiens, UniProt P07948); assay: SelectScreen kinase profiling, ZLYTE; type: biochemical
MAP3K19 (YSK4) = MAP3K19 (YSK4) (Homo sapiens, UniProt Q56UN5); assay: SelectScreen kinase profiling, ZLYTE; type: biochemical
MAP3K9 (MLK1) = MAP3K9 (MLK1) (Homo sapiens, UniProt P80192); assay: SelectScreen kinase profiling, ZLYTE; type: biochemical
MAPK12 (p38 gamma) = MAPK12 (p38 gamma) (Homo sapiens, UniProt P53778); assay: SelectScreen kinase profiling, ZLYTE; type: biochemical
MAPK8 (JNK1) = MAPK8 (JNK1) (Homo sapiens, UniProt P45983); assay: SelectScreen kinase profiling, LanthaScreen binding
MAPKAPK5 (PRAK) = MAPKAPK5 (PRAK) (Homo sapiens, UniProt Q8IW41); assay: SelectScreen kinase profiling, ZLYTE; type: biochemical
MET M1250T = MET M1250T (Homo sapiens, UniProt P08581, M1250T); assay: SelectScreen kinase profiling, ZLYTE; type: biochemical
NEK7 = NEK7 (Homo sapiens, UniProt Q8TDX7); assay: SelectScreen kinase profiling, ZLYTE; type: biochemical; conditions: NEK7, 10 µM
PDGFRB (PDGFR beta) = PDGFRB (PDGFR beta) (Homo sapiens, UniProt P09619); assay: SelectScreen kinase profiling, ZLYTE; type: biochemical
PEAK1 = PEAK1 (Homo sapiens, UniProt Q9H792); assay: SelectScreen kinase profiling, ZLYTE; type: biochemical; conditions: PEAK1, 10 µM
PIP5K1C = PIP5K1C (Homo sapiens, UniProt O60331); assay: SelectScreen kinase profiling, Adapta; type: biochemical
PLK1 = PLK1 (Homo sapiens, UniProt P53350); assay: SelectScreen kinase profiling, ZLYTE; type: biochemical; conditions: PLK1, 10 µM
PRKACB (PRKAC beta) = PRKACB (PRKAC beta) (Homo sapiens, UniProt P22694); assay: SelectScreen kinase profiling, LanthaScreen binding
PRKCG (PKC gamma) = PRKCG (PKC gamma) (Homo sapiens, UniProt P05129); assay: SelectScreen kinase profiling, ZLYTE; type: biochemical
RET G691S = RET G691S (Homo sapiens, UniProt P07949, G691S); assay: SelectScreen kinase profiling, LanthaScreen binding
RPS6KA1 (RSK1) = RPS6KA1 (RSK1) (Homo sapiens, UniProt Q15418); assay: SelectScreen kinase profiling, ZLYTE; type: biochemical
SPHK1 = SPHK1 (Homo sapiens, UniProt Q9NYA1); assay: SelectScreen kinase profiling, Adapta; type: biochemical; conditions: SPHK1, 10 µM
STK17B (DRAK2) = STK17B (DRAK2) (Homo sapiens, UniProt O94768); assay: SelectScreen kinase profiling, LanthaScreen binding
ULK3 = ULK3 (Homo sapiens, UniProt Q6PHR2); assay: as above; conditions: ULK3, 10 µM

Sequence of RET G691S (P07949 29-1114 G691S): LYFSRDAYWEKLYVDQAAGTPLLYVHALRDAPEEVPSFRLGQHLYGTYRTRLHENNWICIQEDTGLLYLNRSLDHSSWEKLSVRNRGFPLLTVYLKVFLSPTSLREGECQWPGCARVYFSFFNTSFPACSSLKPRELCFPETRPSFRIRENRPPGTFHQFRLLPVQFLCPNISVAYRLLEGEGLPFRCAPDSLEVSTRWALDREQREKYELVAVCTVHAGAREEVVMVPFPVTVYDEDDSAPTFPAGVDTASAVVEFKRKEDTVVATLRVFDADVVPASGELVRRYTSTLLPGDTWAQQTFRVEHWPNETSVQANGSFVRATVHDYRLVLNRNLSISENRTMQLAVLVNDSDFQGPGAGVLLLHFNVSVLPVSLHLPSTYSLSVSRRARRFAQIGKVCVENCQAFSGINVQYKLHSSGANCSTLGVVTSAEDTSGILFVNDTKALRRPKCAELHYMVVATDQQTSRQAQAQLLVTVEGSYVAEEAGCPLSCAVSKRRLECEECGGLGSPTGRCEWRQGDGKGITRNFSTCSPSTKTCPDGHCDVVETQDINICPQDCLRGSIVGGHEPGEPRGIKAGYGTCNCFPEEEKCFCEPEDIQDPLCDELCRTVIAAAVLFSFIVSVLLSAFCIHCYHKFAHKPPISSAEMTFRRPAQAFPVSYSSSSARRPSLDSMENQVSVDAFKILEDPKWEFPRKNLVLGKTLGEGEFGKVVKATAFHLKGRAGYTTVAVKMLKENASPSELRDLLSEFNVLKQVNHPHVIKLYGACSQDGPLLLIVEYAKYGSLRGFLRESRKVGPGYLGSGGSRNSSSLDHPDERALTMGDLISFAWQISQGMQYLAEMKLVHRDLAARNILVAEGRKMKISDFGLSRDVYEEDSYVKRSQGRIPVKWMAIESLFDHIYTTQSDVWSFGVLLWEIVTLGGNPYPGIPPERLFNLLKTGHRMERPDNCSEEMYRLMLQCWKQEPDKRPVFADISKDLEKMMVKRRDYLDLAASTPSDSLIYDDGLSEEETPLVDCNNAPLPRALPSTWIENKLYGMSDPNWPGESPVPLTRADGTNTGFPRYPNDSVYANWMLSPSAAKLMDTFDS
Sequence of PIP5K1C (O60331 whole entry): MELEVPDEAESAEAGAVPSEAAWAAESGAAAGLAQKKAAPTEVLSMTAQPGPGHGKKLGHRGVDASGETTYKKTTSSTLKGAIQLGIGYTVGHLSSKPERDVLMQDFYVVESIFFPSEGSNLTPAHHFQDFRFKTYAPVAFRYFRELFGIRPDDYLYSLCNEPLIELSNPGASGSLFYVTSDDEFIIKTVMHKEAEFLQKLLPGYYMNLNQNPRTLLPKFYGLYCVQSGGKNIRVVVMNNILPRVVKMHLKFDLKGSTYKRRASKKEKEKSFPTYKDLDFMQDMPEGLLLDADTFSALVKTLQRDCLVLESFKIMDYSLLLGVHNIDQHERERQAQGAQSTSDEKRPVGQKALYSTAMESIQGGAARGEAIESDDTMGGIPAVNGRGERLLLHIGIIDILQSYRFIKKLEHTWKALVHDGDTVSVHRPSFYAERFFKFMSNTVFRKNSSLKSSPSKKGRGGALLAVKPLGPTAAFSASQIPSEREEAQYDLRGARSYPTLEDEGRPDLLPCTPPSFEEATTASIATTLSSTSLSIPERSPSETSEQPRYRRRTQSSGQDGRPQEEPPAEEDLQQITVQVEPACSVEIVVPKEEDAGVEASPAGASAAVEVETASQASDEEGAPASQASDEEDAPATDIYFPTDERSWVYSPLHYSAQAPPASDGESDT
Sequence of CYP2D6 (P10635 whole entry): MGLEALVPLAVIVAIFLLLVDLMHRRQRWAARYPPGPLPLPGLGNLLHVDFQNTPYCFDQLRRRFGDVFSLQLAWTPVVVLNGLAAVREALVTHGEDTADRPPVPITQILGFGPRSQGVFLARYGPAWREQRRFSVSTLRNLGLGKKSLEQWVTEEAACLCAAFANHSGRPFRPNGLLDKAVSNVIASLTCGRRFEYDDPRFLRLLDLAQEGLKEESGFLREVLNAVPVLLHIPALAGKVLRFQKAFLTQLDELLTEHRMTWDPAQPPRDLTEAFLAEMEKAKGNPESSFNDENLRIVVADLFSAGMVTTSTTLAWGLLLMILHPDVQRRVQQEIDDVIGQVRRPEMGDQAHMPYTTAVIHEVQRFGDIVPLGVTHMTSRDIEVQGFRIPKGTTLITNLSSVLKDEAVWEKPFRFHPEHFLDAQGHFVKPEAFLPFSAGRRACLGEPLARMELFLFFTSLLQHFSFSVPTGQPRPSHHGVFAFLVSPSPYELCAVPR
Sequence of NEK7 (Q8TDX7 whole entry): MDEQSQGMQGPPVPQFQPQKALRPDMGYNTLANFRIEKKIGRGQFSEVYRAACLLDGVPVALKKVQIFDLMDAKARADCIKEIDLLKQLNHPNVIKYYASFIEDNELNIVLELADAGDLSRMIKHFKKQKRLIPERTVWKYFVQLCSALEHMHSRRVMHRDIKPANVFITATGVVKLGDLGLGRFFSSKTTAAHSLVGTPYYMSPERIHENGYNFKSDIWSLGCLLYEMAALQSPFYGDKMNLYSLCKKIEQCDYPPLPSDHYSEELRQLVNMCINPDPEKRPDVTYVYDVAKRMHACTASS
Sequence of CSK (P41240 whole entry): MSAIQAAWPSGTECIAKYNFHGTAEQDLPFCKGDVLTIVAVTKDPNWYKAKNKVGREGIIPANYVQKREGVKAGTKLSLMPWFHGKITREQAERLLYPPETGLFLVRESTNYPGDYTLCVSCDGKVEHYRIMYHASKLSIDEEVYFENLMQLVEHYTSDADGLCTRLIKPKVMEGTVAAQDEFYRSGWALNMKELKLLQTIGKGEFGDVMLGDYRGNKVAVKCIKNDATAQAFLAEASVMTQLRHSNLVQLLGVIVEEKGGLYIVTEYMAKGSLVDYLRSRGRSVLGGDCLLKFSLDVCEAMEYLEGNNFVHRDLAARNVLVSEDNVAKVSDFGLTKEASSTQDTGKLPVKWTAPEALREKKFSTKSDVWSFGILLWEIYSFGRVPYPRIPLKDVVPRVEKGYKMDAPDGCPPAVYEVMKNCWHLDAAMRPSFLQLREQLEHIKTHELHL
Sequence of DAPK2 (Q9UIK4 whole entry): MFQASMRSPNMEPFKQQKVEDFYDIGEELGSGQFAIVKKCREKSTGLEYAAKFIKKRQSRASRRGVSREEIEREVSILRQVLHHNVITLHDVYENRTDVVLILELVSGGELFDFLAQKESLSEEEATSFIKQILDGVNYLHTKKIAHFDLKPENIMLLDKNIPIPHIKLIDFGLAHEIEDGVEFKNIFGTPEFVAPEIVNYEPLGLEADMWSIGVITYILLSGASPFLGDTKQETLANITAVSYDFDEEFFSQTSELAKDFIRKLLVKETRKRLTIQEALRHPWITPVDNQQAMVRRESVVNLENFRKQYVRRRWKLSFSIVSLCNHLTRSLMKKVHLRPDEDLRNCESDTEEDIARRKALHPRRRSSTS
Sequence of PDGFRB (PDGFR beta) (P09619 33-1106): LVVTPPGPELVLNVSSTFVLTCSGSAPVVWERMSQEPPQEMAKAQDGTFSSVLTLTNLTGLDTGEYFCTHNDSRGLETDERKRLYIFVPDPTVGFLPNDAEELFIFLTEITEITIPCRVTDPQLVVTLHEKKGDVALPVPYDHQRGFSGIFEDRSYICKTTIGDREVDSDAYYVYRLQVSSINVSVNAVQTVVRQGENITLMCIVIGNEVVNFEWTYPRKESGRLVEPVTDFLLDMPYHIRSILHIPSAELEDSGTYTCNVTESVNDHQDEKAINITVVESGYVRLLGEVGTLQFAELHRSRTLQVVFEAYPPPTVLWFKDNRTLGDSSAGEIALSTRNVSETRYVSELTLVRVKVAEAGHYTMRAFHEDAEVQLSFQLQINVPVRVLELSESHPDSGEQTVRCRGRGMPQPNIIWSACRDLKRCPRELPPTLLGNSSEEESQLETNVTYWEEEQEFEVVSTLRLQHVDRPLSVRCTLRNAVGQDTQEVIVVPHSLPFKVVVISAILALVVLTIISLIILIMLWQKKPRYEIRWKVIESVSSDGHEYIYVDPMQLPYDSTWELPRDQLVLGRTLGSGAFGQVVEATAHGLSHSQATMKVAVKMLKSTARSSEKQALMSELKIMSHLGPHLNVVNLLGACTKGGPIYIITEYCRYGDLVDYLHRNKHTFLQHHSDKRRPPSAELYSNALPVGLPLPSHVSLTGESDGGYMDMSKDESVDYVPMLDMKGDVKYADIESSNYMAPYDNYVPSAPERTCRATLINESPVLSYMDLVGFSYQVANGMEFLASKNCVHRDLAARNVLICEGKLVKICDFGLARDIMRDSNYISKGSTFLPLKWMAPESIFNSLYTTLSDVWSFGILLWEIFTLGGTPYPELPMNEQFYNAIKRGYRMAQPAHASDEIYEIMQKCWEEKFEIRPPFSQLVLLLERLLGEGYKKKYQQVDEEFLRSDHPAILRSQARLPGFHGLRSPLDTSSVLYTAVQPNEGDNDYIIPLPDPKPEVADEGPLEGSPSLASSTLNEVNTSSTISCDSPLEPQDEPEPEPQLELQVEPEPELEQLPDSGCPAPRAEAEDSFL
Sequence of PLK1 (P53350 whole entry): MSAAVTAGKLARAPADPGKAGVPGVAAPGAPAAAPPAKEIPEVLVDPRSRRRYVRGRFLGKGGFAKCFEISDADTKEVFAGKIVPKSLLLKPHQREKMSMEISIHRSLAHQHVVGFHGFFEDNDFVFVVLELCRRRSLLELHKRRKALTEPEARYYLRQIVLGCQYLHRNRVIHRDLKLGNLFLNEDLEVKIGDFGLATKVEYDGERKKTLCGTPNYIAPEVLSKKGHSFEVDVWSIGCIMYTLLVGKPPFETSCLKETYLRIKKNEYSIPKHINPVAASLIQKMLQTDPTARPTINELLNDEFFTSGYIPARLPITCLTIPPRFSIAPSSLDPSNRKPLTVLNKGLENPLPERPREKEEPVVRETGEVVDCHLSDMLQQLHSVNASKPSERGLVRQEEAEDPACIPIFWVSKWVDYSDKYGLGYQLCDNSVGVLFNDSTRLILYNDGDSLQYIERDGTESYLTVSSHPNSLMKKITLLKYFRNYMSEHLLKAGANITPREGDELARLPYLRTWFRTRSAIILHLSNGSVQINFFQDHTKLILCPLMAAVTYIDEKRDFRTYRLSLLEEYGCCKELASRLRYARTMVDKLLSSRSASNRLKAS

O=C(c1ccc(/C=C/c2n[nH]c3ccccc23)cc1)N1CCNCC1 [KW-2449]
colony formation (RT and MB cells): complete inhibition of colony formation in all cell lines except the MB cell line DAOY | inhibition at 10 µM (ABL1 F317L): 98% | inhibition at 10 µM (ABL1 M351T): 52% | inhibition at 10 µM (ADRBK2 (GRK3)): 31% | inhibition at 10 µM (AURKB (Aurora B)): 102% | inhibition at 10 µM (BRAF V599E): 60% | inhibition at 10 µM (CAMK2B (CaMKII beta)): 32% | inhibition at 10 µM (CSK): 71% | inhibition at 10 µM [1]: 71% | inhibition at 10 µM (DAPK2): 64% | inhibition at 10 µM (DNA-PK): 24% | inhibition at 10 µM (EEF2K): -1% | IC50 (CYP2D6): > 10 µM | inhibition at 10 µM (FER): 98% | inhibition at 10 µM (FYN): 94% | inhibition at 10 µM (JAK2 JH1 JH2): 96% | inhibition at 10 µM (LRRK2): 100% | inhibition at 10 µM (LRRK2 FL): 100% | inhibition at 10 µM (LYN A): 89% | inhibition at 10 µM (LYN B): 94% | inhibition at 10 µM (MAP3K19 (YSK4)): 98% | inhibition at 10 µM (MAP3K9 (MLK1)): 102% | inhibition at 10 µM (MAPK12 (p38 gamma)): 23% | inhibition at 10 µM (MAPK8 (JNK1)): 81% | inhibition at 10 µM (MAPKAPK5 (PRAK)): 87% | inhibition at 10 µM (MET M1250T): 96% | inhibition at 10 µM (NEK7): 7% | inhibition at 10 µM (PDGFRB (PDGFR beta)): 76% | inhibition at 10 µM (PEAK1): 91% | inhibition at 10 µM (PIP5K1C): 7% | inhibition at 10 µM (PLK1): 16% | inhibition at 10 µM (PRKACB (PRKAC beta)): 48% | inhibition at 10 µM (PRKCG (PKC gamma)): 81% | inhibition at 10 µM (RET G691S): -30% | inhibition at 10 µM (RPS6KA1 (RSK1)): 94% | inhibition at 10 µM (SPHK1): 17% | inhibition at 10 µM (STK17B (DRAK2)): 58% | inhibition at 10 µM (ULK3): 5%

— publication PMC6540285, “Evaluation of Protein Kinase Inhibitors with PLK4 Cross-Over Potential in a Pre-Clinical Model of Cancer” (International Journal of Molecular Sciences, 2019)
